Drawing on US10479805B2, “Beta-lactamase inhibitor” (priority 2016, dated 2019), this text covers MIC for two compounds.

Converted amounts (≈) assume the structure as drawn.

One may read the MIC as the lowest concentration that inhibits growth of the organism.

Holding throughout (experiment): Broth microdilution MIC, cephalosporin alone
What all share (assay type): cell-based
(Broth dilution looks for growth in wells or tubes with falling amounts of substance.)

Experiment [1] deals with E. coli expressing class A ESBLCTXM15. As to conditions: Escherichia coli. An excerpt: (§1) To determine that ability of the test compound to inhibit the growth of beta-lactamase-producing bacterial strain, traditional cell-based screening experiments were employed. Six bacterial strains producing beta-lactamases were used: Escherichia coli expressing class an extended spectrum beta-lactamases (esbl) ctxm15 and shv5 (E. coli), Klebsiella pneumoniae expressing class a carbapenem enzyme kpc2, Pseudomonas aeruginosa expressing class B VIM-2, Enterobacter cloacae expressing class C P99+, and Acinetobacter baumannii expressing class D OXA-23 were studied. […] This experiment was performed in Cation Adjusted Mueller Hinton Broth (CAMHB, BD #212322, BD Diagnostic Systems, Sparks, Md.). The bacterial strains were grown in CAMBH broth for […]. All six strains were grown in the presence of 50 μg/mL ampicillin to ensure that resistance was maintained. At the same time, the test compound was diluted into 0.1 mg/mL stock solution in DMSO. The compound was added to the microplate and diluted in a 2-fold series in CAMHB to a final concentration of 32 to 0.25 μg/mL. A cover layer containing cephalosporin CAMHB was added to the compound at a termination concentration of 8 μg/mL or […]. […] The MIC reading of the dose escalation test of the test compound indicates the concentration of the analyte sufficient to inhibit beta-lactamase activity and protect the original antibacterial activity of cephalosporins. Six plates are required for each compound and each plate is used for one bacterial strain. In addition to the dose escalation test of the test compound, the MIC of a group of cephalosporins was tested to ensure that the strain remained consistent in behavior between the test and the test. Once the test compound and cephalosporin are added, the plates may be inoculated. The inoculation was carried out according to the CLSI broth microdilution method.

Experiment [2] deals with Acinetobacter baumannii expressing class D enzyme OXA-23.
Source text: as §1

Experiment [3] deals with Enterobacter cloacae expressing class C P99+AmpC.
Source text: as §1

Experiment [4] deals with Escherichia coli expressing class A ESBL SHV5. As to conditions: read-out: MIC alone.
Source text: as §1

The test system of experiment [5] is Klebsiella pneumoniae expressing carbapenem class A KPC2. As to conditions: antibiotic alone, K. pneumoniae KPC2, CAMHB.
Source text: as §1

In experiment [6] the test system is Pseudomonas aeruginosa expressing class B enzyme VIM-2.
Source text: as §1

In the case of `CO/N=C(\C(=O)N[C@@H]1C(=O)N2C(C(=O)O)=C(COC(C)=O)CS[C@H]12)c1csc(N)n1` [cefotaxime], in experiment [1], it took 1020 µg/mL (≈ 2250 µM) to inhibit growth (MIC).

Turning to `CC(C)(O/N=C(\C(=O)N[C@@H]1C(=O)N2C(C(=O)[O-])=C(C[n+]3ccccc3)CS[C@H]12)c1csc(N)n1)C(=O)O` [Ceftazidime], the MIC in experiment [2] is more than 256 µg/mL; in experiment [3], 256 µg/mL (≈ 468 µM); in experiment [4], more than 1020 µg/mL; in experiment [5], 32 µg/mL (≈ 58.5 µM); in experiment [6], more than 256 µg/mL.
